Experimental data published in patent publication US20160185717A1, “COMPOUNDS WITH ANTIBACTERIAL ACTIVITY” (FUNDACIÓN MEDINA. CENTRO DE EXCELENCIA EN INVESTIGACIÓN DE …, priority 2013, published 2016).
Converted amounts (≈) assume the structure as drawn.

Tests used:
P. aeruginosa ATCC 27853 = experiment: Broth microdilution MIC; type: cell-based, Pseudomonas aeruginosa; conditions: P. aeruginosa ATCC 27853, wild type
Method: (§1) Antibacterial activity of compounds MDN-0057, MDN-0058, MDN-0059 and MDN-0060 was evaluated using the broth microdilution methodology. This method is used to determine minimum inhibitory concentrations (MICs) which are defined as the lowest concentration of an antimicrobial compound that will inhibit the visible growth of a microorganism after overnight incubation.
(§2) In the microbroth dilution assay, microorganisms were selected by streaking bacteria culture from a cryovial into Mueller Hinton II (MHII) agar plate(s) and incubate overnight at 37° C. Thereafter, 3 to 5 characteristic fresh colonies were selected and suspended in 25 mL of MHII broth media for 2 hours shaking at 220 rpm. The 2 hour broth cultures were adjusted to an optical density of 0.111 at 660 nm and then diluted to 1:100 in order to obtain assay inoculums.
(§3) The four compounds evaluated were serially diluted in 100% DMSO with a dilution factor of 2 to provide 10 compound concentrations starting at 8 mg/mL.
(§4) For the assays, 90 μL/well of the appropriated diluted inoculum were mixed with 1.6 μL/well of each compound concentration and 8.4 μL/well of MHII broth media, resulting in an additional dilution of these compounds to yield concentrations in the assay wells from 128 μg/mL to 0.25 μg/mL. After that, the assay plates were read in a Tecan Ultraevolution spectrophotometer at 612 nm for T0 (zero time). Then, the plates were statically incubated at 37° C. for 20 hours. After incubation, they were shaken in a DPC Micromix-5 and read again for Tf (final time). Percentage of growth inhibition was calculated using the following normalization:
(§5) % Inhibition=[1-[(TfSample-T0Sample)−(TfBlank-T0blank)/(TfGrowth-T0Growth)−(TfBlank-T0blank)]×100. • Where, • T0 Sample=the absorbance of the strain growth in the presence of sample measured at zero time (before incubation). • Tf Sample=the absorbance of the strain growth in the presence of sample measured at final time (after incubation) • T0 Growth=the absorbance of the strain growth in the absence of sample measured at zero time (before incubation). • Tf Growth=the absorbance of the strain growth in the absence of sample measured at final time (after incubation). • T0 Blank=the absorbance of the broth medium (blank) measured at zero time (before incubation). • Tf Blank=the absorbance of the broth medium (blank) measured at final time (after incubation).

A. baumannii 5973 = experiment: Broth microdilution MIC; type: cell-based, Acinetobacter baumannii; conditions: A. baumannii 5973, Clinical isolate
Method: as §1, §2, §3, §4, §5

S. aureus ATCC 29213 = experiment: Broth microdilution MIC; type: cell-based, Staphylococcus aureus; conditions: for MIC: S. aureus ATCC 29213, wild type
Method: as §1, §2, §3, §4, §5

P. aeruginosa 839 = experiment: Broth microdilution MIC; type: cell-based, Pseudomonas aeruginosa; conditions: P. aeruginosa 839, ΔMexAB-OprM
Method: as §1, §2, §3, §4, §5

K. pneumoniae 21 = experiment: Broth microdilution MIC; type: cell-based, Klebsiella pneumoniae; conditions: K. pneumoniae 21, permeable strain
Method: as §1, §2, §3, §4, §5

K. pneumoniae 847 = experiment: Broth microdilution MIC; type: cell-based, Klebsiella pneumoniae; conditions: K. pneumoniae 847, Clinical isolate
Method: as §1, §2, §3, §4, §5

[1] = system: RNA synthesis in E. coli acrAB::Tn903; experiment: Macromolecular labeling assay, RNA synthesis; type: cell-based, Escherichia coli; conditions: at up to 8-fold the MIC, [3H] uridine
Method: (§6) The macromolecular synthesis assay, in which the inhibition of the intracellular building blocks of macromolecules are measured, provides guidance for understanding the broad MOA of compounds
(§7) The inhibitory effect on synthesis of macromolecules in the lipid, cell wall, DNA, RNA and protein synthesis pathways was determined in growing cells of E. coli acrAB::Tn903. Cells were grown at 35° C. overnight on Trypticase Soy agar, and this culture was used to inoculate 15 ml of Mueller Hinton broth II (MHB). The culture was grown to early exponential growth phase (OD600=0.2 to 0.3) while incubating in a shaker at 35° C. and 200 rpm.
(§8) Cells in early exponential phase were exposed to MDN-0057, and their incorporation of radioactive precursors in each pathway was determined. Rifampicin, Ciprofloxacin, Tetracycline, Imipenem and Irgasan were included as positive controls for inhibition of RNA, DNA, protein, cell wall and lipid synthesis, respectively. (FIG. 1)
(§9) DNA, RNA, and protein synthesis: When cells reached early exponential phase, 100 μL of culture was added to triplicate wells containing various concentrations of MDN-0057 or control antibiotics (2.5 μL) at 40× the final concentration in 100% DMSO or deionized water (dH2O). […] After washing five times with 200 μL per well of cold 5% TCA, the filters were allowed to dry, and then counted using a Packard Top Count microplate scintillation counter.

[2] = system: wild type (WT) Acinetobacter baumannii (ATCC BAA-747); experiment: Resistance bioassay on A. baumannii; type: cell-based
Method: (§10) The frequency of resistance to MDN-0057 and MDN-0058 was assessed on Escherichia coli acrAB::Tn903 (CB-219) and wild type (WT) Acinetobacter baumannii (ATCC BAA-747). For this purpose, the Minimum Inhibitory Concentration of MDN-0057 versus each strain was determined by broth microdilution as described in Clinical Laboratory Standards Institute publication M07-A9, Vol. 32, No. 2., “Methods for Dilution Antimicrobial Susceptibility Tests for Bacteria that Grow Aerobically; Approved Standard—Ninth Edition,” January 2012. Six-well plates containing Mueller Hinton II agar (5 mL per well) were prepared with MDN-0057 or MDN-0058 at concentrations 4-fold and 8-fold above the MIC. Cultures were grown to late log phase and spread on the agar. Plates were incubated at 37° C. and examined after one and two days of incubation.
(§11) Six to eight isolates from each species were obtained by re-streaking growth from the plates on antibiotic-free tryptic soy agar plates, and MICs of MDN-0057 versus the isolates were subsequently determined. MICs of the E. coli isolates were elevated at least 16-64-fold relative to their parent strain, CB-219.

[3] = system: Escherichia coli acrAB::Tn903 (CB-219); experiment: Micro RI (resistance) bioassay on E. coli CB-219; type: cell-based
Method: as §10, §11

[4] = system: cell wall synthesis in E. coli acrAB::Tn903; experiment: Macromolecular labeling assay, cell wall synthesis; type: cell-based, Escherichia coli
Method: as §6, §7
Cells in early exponential phase were exposed to MDN-0057, and their incorporation of radioactive precursors in each pathway was determined. […]
Cell wall synthesis: Bacterial cells in early exponential growth phase were transferred to M9 minimal medium and added to 1.5 ml eppendorf tubes (100 μl/tube) containing various concentrations of MDN-0057 or control antibiotics (2.5 μl) at 40× the final concentration in 100% DMSO or dH2O as described above. […] After washing three times with 5 ml of 0.1% SDS, the filters were rinsed two times with 5 mL of dH2O, allowed to dry, and then counted using a Beckman LS3801 liquid scintillation counter.

E. coli 219 = experiment: Broth microdilution MIC; type: cell-based, Escherichia coli; conditions: E. coli 219, ΔAcrAB::Tn903kan
Method: as §1, §2, §3, §4, §5

E. coli ATCC 25922 = experiment: Broth microdilution MIC; type: cell-based, Escherichia coli; conditions: E. coli ATCC 25922, wild type
Method: as §1, §2, §3, §4, §5

[5] = system: protein synthesis in E. coli acrAB::Tn903; experiment: Macromolecular labeling assay, protein synthesis; type: cell-based, Escherichia coli; conditions: at up to 8-fold the MIC, [3H] leucine
Method: as §6, §7, §8, §9

[6] = system: DNA synthesis in E. coli acrAB::Tn903; experiment: Macromolecular labeling assay, DNA synthesis; type: cell-based, Escherichia coli; conditions: at up to 8-fold the MIC, [3H] thymidine
Method: as §6, §7, §8, §9

A. baumannii 2445 = experiment: Broth microdilution MIC; type: cell-based, Acinetobacter baumannii; conditions: A. baumannii 2445, ΔadeABC
Method: as §1, §2, §3, §4, §5

A. baumannii 2444 = experiment: Broth microdilution MIC; type: cell-based, Acinetobacter baumannii; conditions: A. baumannii 2444, ΔadellJK
Method: as §1, §2, §3, §4, §5

[7] = system: A. baumannii ATCC BAA-747; experiment: Broth microdilution MIC; type: cell-based, Acinetobacter baumannii; conditions: A. baumannii ATCC BAA-747, Clinical isolate
Method: as §1, §2, §3, §4, §5

A. baumannii 2446 = experiment: Broth microdilution MIC; type: cell-based, Acinetobacter baumannii; conditions: A. baumannii 2446, ΔadeABC, ΔadellJK
Method: as §1, §2, §3, §4, §5

A. baumannii ATCC 19606 = experiment: Broth microdilution MIC; type: cell-based, Acinetobacter baumannii; conditions: A. baumannii ATCC 19606, Clinical isolate
Method: as §1, §2, §3, §4, §5

A. baumannii 2443 = experiment: Broth microdilution MIC; type: cell-based, Acinetobacter baumannii; conditions: A. baumannii 2443, Clinical isolate
Method: as §1, §2, §3, §4, §5

[8] = system: lipid synthesis in E. coli acrAB::Tn903; experiment: Macromolecular labeling assay, lipid synthesis; type: cell-based, Escherichia coli; conditions: at up to 8-fold the MIC, [3H] glycerol
Method: as §6, §7, §8
Lipid synthesis: Bacterial cells were grown to early exponential growth phase in MHB and 100 μL was added to 1.5 mL eppendorf tubes (in triplicate) containing various concentrations of MDN-0057 or control antibiotics as described above. Following a 5 min incubation at room temperature, [3H] glycerol was added at 0.5 μCi per reaction. […] Samples were then counted via liquid scintillation counting.

[9] = six to eight isolates re-streaked from the plates
[10] = E. coli_219, Micro RI, Isolate #1_4X
[11] = E. coli_219, Micro RI, Isolate #2_8X
[12] = E. coli_219, Micro RI, Isolate #3_4X
[13] = E. coli_219, Micro RI, Isolate #4_4X
[14] = E. coli_219, Micro RI, Isolate #5_8X

SMILES | MIC (P. aeruginosa ATCC 27853) | MIC (A. baumannii 5973) | MIC against S. aureus (No activity) (S. aureus ATCC 29213) | MIC (S. aureus ATCC 29213) | MIC (P. aeruginosa 839) | MIC (K. pneumoniae 21) | MIC (K. pneumoniae 847) | MIC [3, 10] | MIC [3, 11] | MIC [3, 12] | MIC [3, 13] | MIC [3, 14] | MIC ([3]; E. coli_219, Parent) | MIC (E. coli 219) | MIC (E. coli ATCC 25922) | MIC (A. baumannii 2445) | MIC (A. baumannii 2444) | MIC [7] | MIC (A. baumannii 2446) | MIC (A. baumannii ATCC 19606) | other results
[C-]#[N+]C(=C)C(Cc1ccc(OC)cc1)([N+]#[C-])C1CC(O)CCC1OC(C)=O (centres unmarked) [MDN-0059] | 16 µg/mL (≈ 43.4 µM) | 0.5 to 1 µg/mL |  |  |  |  |  |  |  |  |  |  |  |  |  |  |  |  |  |  | 
[C-]#[N+]C(=C)C(Cc1ccc(OC)cc1)([N+]#[C-])C1CC(O)CCC1OC(=O)CO (centres unmarked) [MDN-0057] | 2 to 8 µg/mL | 0.25 µg/mL (≈ 0.65 µM) | 128 µg/mL (≈ 333 µM) | >128 µg/mL | 1 to 2 µg/mL | 0.25 µg/mL (≈ 0.65 µM) | 64 µg/mL (≈ 166 µM) | 0.25 µg/mL (≈ 0.65 µM) | 0.25 µg/mL (≈ 0.65 µM) | 0.25 µg/mL (≈ 0.65 µM) | 0.25 µg/mL (≈ 0.65 µM) | 0.25 µg/mL (≈ 0.65 µM) | 0.125 to 0.5 µg/mL | 0.125 to 0.5 µg/mL | 16 to 64 µg/mL | 2 µg/mL (≈ 5.2 µM) | 0.25 µg/mL (≈ 0.65 µM) | 2 to 4 µg/mL | <0.06 µg/mL | 2 to 4 µg/mL | Inhibition of RNA synthesis [1]: Little or no inhibition; Growth on agar containing compound (frequency of resistance) ([2]; A. baumannii, 4-fold and 8-fold above the broth MIC, after 24 hours of incubation): a lawn of colonies was apparent; MICs of the A. baumannii isolates compared with parent strain A. baumannii BAA-747 [2, 9]: not significantly different; Growth on agar containing compound (frequency of resistance) ([3]; E. coli acrAB::Tn903, 4-fold and 8-fold above the broth MIC, after 48 hours of incubation): pinpoint colonies that were too numerous to count; Elevation of MICs of the E. coli isolates relative to parent strain CB-219 [3, 9]: 16-64 fold; Maximum inhibition of cell wall synthesis ([4]; at 2 to 8-fold the MIC, [14C] N-acetylglucosamine, apparent dose-response): ca. 75%; Inhibition of Macromolecular Synthesis (FIG. 1 legend) ([4]; at 2× MIC, strain E. coli acrAB::Tn903): signal for Cell Wall Biosynthesis; Inhibition of protein synthesis [5]: Little or no inhibition; Inhibition of DNA synthesis [6]: Little or no inhibition; MIC (A. baumannii 2443): 4 µg/mL (≈ 10.4 µM); Inhibition of lipid synthesis [8]: Little or no inhibition
[C-]#[N+]C(=C)C(Cc1ccc(OC)cc1)([N+]#[C-])C1CC(O)C=CC1OC(C)=O (centres unmarked) [MDN-0060] | 32 to 64 µg/mL | 1 to 2 µg/mL |  |  |  |  |  |  |  |  |  |  |  |  |  |  |  |  |  |  | 
[C-]#[N+]C(=C)C(Cc1ccc(OC)cc1)([N+]#[C-])C1CC(O)C=CC1OC(=O)CO (centres unmarked) [MDN-0058] | 64 µg/mL (≈ 167 µM) | 0.25 µg/mL (≈ 0.654 µM) | 128 µg/mL (≈ 335 µM) | >128 µg/mL | 1 to 4 µg/mL | 0.5 µg/mL (≈ 1.31 µM) | 64 µg/mL (≈ 167 µM) | 0.25 µg/mL (≈ 0.654 µM) | 0.25 µg/mL (≈ 0.654 µM) | 0.25 µg/mL (≈ 0.654 µM) | 0.25 µg/mL (≈ 0.654 µM) | 0.25 µg/mL (≈ 0.654 µM) | 0.25 to 0.5 µg/mL | 0.25 to 0.5 µg/mL | 16 µg/mL (≈ 41.8 µM) | 2 to 8 µg/mL | 0.25 to 1 µg/mL | 1 to 16 µg/mL | <0.06 µg/mL | 2 to 8 µg/mL | MIC (A. baumannii 2443): 2 µg/mL (≈ 5.23 µM)
